This assay has as its target Histone deacetylase 1 (Homo sapiens, UniProt Q13547). The experiment in a line: Enzyme Assay: Compounds for testing were diluted in DMSO to 50 fold the final concentration and a ten point three fold dilution series was made. The compounds were diluted in assay buffer (50 mM HEPES, pH 7.4, 100 mM KCl, 0.001% Tween-20, 0.05% BSA, 20 μM tris(2-carboxyethyl)phosphine) to 6 fold their final concentration. The HDAC enzymes (purchased from BPS Biosciences) were diluted to 1.5 fold their final concentration in assay buffer and pre-incubated with the compounds for 24 hours prior to addition of the substrate.
Histone deacetylase 1, sequence (Q13547 whole entry): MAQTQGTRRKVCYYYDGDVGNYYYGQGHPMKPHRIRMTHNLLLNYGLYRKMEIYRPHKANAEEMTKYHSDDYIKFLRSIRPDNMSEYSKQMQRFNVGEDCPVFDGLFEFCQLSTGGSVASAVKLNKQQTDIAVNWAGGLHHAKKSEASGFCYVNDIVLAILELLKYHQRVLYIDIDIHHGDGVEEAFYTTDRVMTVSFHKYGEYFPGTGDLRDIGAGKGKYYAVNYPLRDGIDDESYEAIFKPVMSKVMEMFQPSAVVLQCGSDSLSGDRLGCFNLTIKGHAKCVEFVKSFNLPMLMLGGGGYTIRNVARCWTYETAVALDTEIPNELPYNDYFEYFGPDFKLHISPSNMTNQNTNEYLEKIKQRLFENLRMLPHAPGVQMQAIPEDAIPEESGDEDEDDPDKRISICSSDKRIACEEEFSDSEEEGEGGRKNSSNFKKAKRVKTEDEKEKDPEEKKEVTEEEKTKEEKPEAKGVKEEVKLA
Compound `CN(c1ncc(C(=O)Nc2cc(-c3ccccc3)ccc2N)cn1)C1CCN(C(=O)Cc2c[nH]c3ccccc23)CC1` yielded an IC50 of 48 nM.
Compound `Nc1ccc(-c2ccccc2)cc1NC(=O)c1cnc(NC2CCN(C(=O)Cc3c[nH]c4ccccc34)CC2)nc1` showed an IC50 of 22 nM.
The same measure for `CC1(Nc2ncc(C(=O)Nc3cc(-c4ccccc4)ccc3N)cn2)CCNCC1`: 14 nM.

(Values after ChEMBL document CHEMBL5726496, “Piperidine derivatives as HDAC1/2 inhibitors” (2017).)
